Experimental data from US20240325370A1, “THERAPEUTIC REGIMENS OF A DEGRADER OF BRD9” (FOGHORN THERAPEUTICS INC., priority 2021, published 2024).

Legend:
BRD9 = target: T1, BRD9 (Homo sapiens, UniProt Q9H8M2); assay: Kinetic experiments of BRD9 degradation in synovial sarcoma cell lines; format: cell-based
T1 sequence (Q9H8M2 1-597): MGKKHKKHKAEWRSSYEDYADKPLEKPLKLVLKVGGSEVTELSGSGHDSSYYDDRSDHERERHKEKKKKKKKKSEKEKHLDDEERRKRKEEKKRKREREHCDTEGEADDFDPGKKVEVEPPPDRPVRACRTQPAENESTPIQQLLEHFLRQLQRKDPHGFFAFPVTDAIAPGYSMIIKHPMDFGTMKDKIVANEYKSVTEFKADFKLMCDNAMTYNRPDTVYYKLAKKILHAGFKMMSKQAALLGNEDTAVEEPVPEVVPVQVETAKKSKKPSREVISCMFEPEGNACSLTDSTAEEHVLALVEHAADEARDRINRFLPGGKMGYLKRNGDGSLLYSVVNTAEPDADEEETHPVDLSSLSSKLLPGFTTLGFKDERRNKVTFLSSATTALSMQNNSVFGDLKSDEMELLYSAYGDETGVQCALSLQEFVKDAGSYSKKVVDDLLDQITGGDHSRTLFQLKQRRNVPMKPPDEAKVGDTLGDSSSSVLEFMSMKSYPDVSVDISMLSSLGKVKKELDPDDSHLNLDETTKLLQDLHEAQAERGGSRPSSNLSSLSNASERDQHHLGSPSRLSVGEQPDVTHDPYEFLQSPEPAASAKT
Procedure: Kinetic Experiments in Synovial Sarcoma Cell Lines. To assess the rate of BRD9 protein degradation following treatment with compound D1, this compound was administered at a steady dose of 15 nM over multiple time points in SYO-1 and ASKA synovial sarcoma cell lines. After cell treatment, BRD9 protein levels were determined by western blot analyses.
Cells grown in flasks to log phase growth were washed with PBS and dissociated by adding TrypLE™ Express. Two wells were allocated per sample. Plates were incubated at 37° C. with 5% CO2 overnight.
The next day, cells were treated with 15 nM compound D1, with the final DMSO content of 0.1% (v/v) matching the untreated control. After the designated incubation periods for each sample, as indicated in FIGS. 29A and 29B, cells were harvested, resuspended in PBS, and centrifuged at 5,000 rpm for 5 minutes. After being washed twice with PBS, the resulting cell pellets were stored at −80° C.
Cells were processed for western blot analysis as follows (see Table 15 for specific conditions). Cell lysates were prepared by resuspending thawed pellets in RIPA lysis buffer with protease and phosphatase inhibitors and DNA nuclease enzymes. […] Samples were then analysed for total protein using BCA protein quantitation assay following manufacturer's instructions. […]

[1] = tested on: ASKA synovial sarcoma xenografts; assay: ASKA synovial sarcoma xenograft efficacy; format: in vivo; conditions: for Tumor Growth (%) on Day 21 / Tumor Size (mm^3) on Day 21: Mean ± SEM; for T/C (%) / TGI (%): Day 21
Procedure: A study was conducted to examine anti-tumor efficacy of compound S-D1 with BIW IV dosing of the racemate, compound D1, for 3 weeks utilizing a second xenograft model of human synovial sarcoma, ASKA. Vehicle (0.5% HPMC, 0.1% Tween 80 in water, pH 1.3 to 1.5), administered orally, was used as the general comparator for all test article responses (i.e., tumor growth and body weight changes). Pazopanib and ifosfamide, two agents currently used in clinic to treat synovial sarcoma patients were compared to compound D1 treatment alone. Pazopanib was administered orally at 40 mg/kg QD and ifosfamide was given IV at 80 mg/kg QD for the first 3 days (Days 0, 1, and 2) in the 3-week treatment period, mimicking the equivalent treatment regimens for both drugs in human patients.

[2] = tested on: SYO-1 human biphasic synovial sarcoma tumor; assay: SYO-1 synovial sarcoma xenograft efficacy, daily i.p. dosing; format: in vivo; conditions: 1 mg/kg i.p. daily, 3 weeks; NOD SCID mice
Procedure: Method: NOD SCID mice (Beijing Anikeeper Biotech, Beijing) were inoculated subcutaneously on the right flank with the single cell suspension of SYO-1 human biphasic synovial sarcoma tumor cells (5×106) in 100 μL Dulbecco's Modified Eagle Medium (DMEM) with 10% fetal bovine serum (FBS). The mice were randomized into either control group [10% dimethyl sulfoxide (DMSO), 40% polyethylene glycol (PEG400) and 50% water], or treatment group D1 when the mean tumor size reached about 117 mm^3. Mice were dosed daily through intraperitoneal (i.p.) route over the course of 3 weeks. All dose volumes were adjusted by body weights in terms of mg/kg.

endogenous BRD9 = target: T2, endogenous BRD9 (Homo sapiens, UniProt Q9H8M2); assay: MSD assay of endogenous BRD9 degradation in synovial sarcoma cell lines; format: cell-based; conditions: 6 hours, estimated from racemate compound D1 (about 50% active enantiomer)
T2 sequence (Q9H8M2 1-597): T1 sequence (Q9H8M2 1-597)

[3] = 0.1 mg/kg BIW IV 3 weeks, ASKA xenograft
[4] = 0.5 mg/kg BIW IV 3 weeks, ASKA xenograft
[5] = 2 mg/kg BIW IV 3 weeks, ASKA xenograft
[6] = 0.5 or 2 mg/kg BIW IV, ASKA xenograft

| SMILES | BRD9 protein degradation (BRD9; ASKA cells, upon 30 minutes of treatment, 15 nM) | time of treatment to markedly deplete BRD9 protein (BRD9; SYO-1 cells, 100-fold of NanoLuc DC50 (15 nM)) [h] | Tumor Growth (%) on Day 21 [1, 3] [%] | Tumor Size (mm^3) on Day 21 [1, 3] [mm^3] | T/C (%) ([1]; 0.1 mg/kg BIW IV 3 weeks) | TGI (%) ([1]; 0.1 mg/kg BIW IV 3 weeks) | Tumor Growth (%) on Day 21 [1, 4] [%] | Tumor Size (mm^3) on Day 21 [1, 4] [mm^3] | T/C (%) ([1]; 0.5 mg/kg BIW IV 3 weeks) | TGI (%) ([1]; 0.5 mg/kg BIW IV 3 weeks) | Tumor Growth (%) on Day 21 [1, 5] [%] | Tumor Size (mm^3) on Day 21 [1, 5] [mm^3] | T/C (%) ([1]; 2 mg/kg BIW IV 3 weeks) | TGI (%) ([1]; 2 mg/kg BIW IV 3 weeks) | tumor response [1, 6] | tumor stasis continued after the cessation of dosing [1, 6] | tumor growth inhibition [2] | DC50 (endogenous BRD9) [pM] |
| --- | --- | --- | --- | --- | --- | --- | --- | --- | --- | --- | --- | --- | --- | --- | --- | --- | --- | --- |
| COc1cc(-c2cn(C)c(=O)c3cnc(N4CCC4)cc23)cc(OC)c1CN1CCC(CN2CCC3(CC2)CN(c2ccc4c(c2)C(=O)N(C2CCC(=O)NC2=O)C4)C3)CC1 (racemic) [Compound D1, 3-[6-(7-[[1-([4-[6-(azetidin-1-yl)-2-methyl-1-oxo-2,7-naphthyridin-4-yl]-2,6-dimethoxyphenyl]methyl)piperidin-4-yl]methyl]-2,7-diazaspiro[3.5]nonan-2-yl)-1-oxo-3H-isoindol-2-yl]piperidine-2,6-dione] | nearly complete BRD9 protein degradation | ≤ 2 | 440 ± 46 | 634 ± 82 | 36.1 | 63.9 | 121 ± 13 | 175 ± 26 | 9.9 | 90.1 | 92 ± 6 | 130 ± 10 | 7.6 | 92.4 | Tumor stasis | approximately 15 days | tumor growth inhibition |  |
| COc1cc(-c2cn(C)c(=O)c3cnc(N4CCC4)cc23)cc(OC)c1CN1CCC(CN2CCC3(CC2)CN(c2ccc4c(c2)C(=O)N([C@H]2CCC(=O)NC2=O)C4)C3)CC1 (single isomer, unassigned) [Compound S-D1] |  |  |  |  |  |  |  |  |  |  |  |  |  |  |  |  |  | 25 to 100 |
